{"source": "patent US20040147595A1", "about": "“Biofilm degrading or sloughing compositions and methods” (priority 2001, published 2004)", "key": {"[1]": {"tested_on": "las quorum sensing system (lasB-gfp(ASV) Plac-lasR)", "experiment": "pMHLAS lasB-gfp(ASV) reporter in E. coli MT102", "format": "cell-based, Escherichia coli", "settings": "E. coli MT102 host, data not shown", "description": "AHL and furanone bioassay. Strains were grown exponentially in LB or ABt medium supplemented with 0.5% glucose at 30° C., shading at 250 rpm. At an optical density of approximately 0.8. the cultures were diluted and split into subcultures in glass culture flasks. AHLs and furanone 56 were added to appropriate concentrations and the cultures were further incubated at 30° C. under vigorous shaking. Culture samples were retrieved at various time intervals and green fluorescence was measured with a fluorometer (model RF-1501, Shimadzu, Tokyo, Japan) set at an excitation wavelength of 475 nm and emission wavelength of 515 nm. Relative fluorescence was calculated as green fluorescence normalized to 1 ml culture divided by the optical density (OD600 nm.\nInitially, the lasB-gfp(ASV) translational fusion (OdDHL sensor) was thoroughly characterized with respect to its sensitivity and specificity. A culture of E. coli hosting the pMHLAS monitor plasmid was diluted and spilt into several subcultures which were then supplemented with AHLs at concentrations ranging from 0 to 1000 nM. […] When the pMHLAS based reporter system was hosted by PAO-JP2. the OdDHL concentration required for half-maximal activation of the lasB-gfp(ASV) fusion was 8 nM (data not shown). In single copy on the chromosome of PAO-JP2, the OdDHL concentration on required for half-maximal activation of lasB expression was approximately 250 nM (FIG. 2b). Green fluorescent cells were visible by epifluorescence microscopy at a minimal OdDHL concentration of 50 nM (FIG. 2c).\nEffect of the furanone in a heterologous background. The direct regulation exerted by the las regulon on lasB expression is well described by numerous studies (Gambello & Iglewski, 1991: Pearson et al., 1994; Pearson et al., 1997). Regulatory complexity is added by the observation that the las quorum sensing circuit itself is subject to global regulators (Albus et al., 1997; Whiteley et al., 2000) and that lasB expression is also controlled by other regulators than LasR (Brumlik & Storey, 1992; Pesci et al., 1999; Schictman et al., 1995). It was, therefore, important to rule out that QSI effect, observed is not caused by furanone interaction with high levels of control. Since there is no AHL-based quorum sensing system present in Escherichia coli (Williams et al., 2000), this bacterium provides an unbiased and well-defined genetic background for studying the direct effects of the furanone on the P. aeruginosa las quorum sensing system. We repeated the above-described experiments using E. coli MT102 as a heterologous host for the reporter system. […] This is likely to be attributed to the increased copy number of the reporter plasmid."}, "[2]": {"tested_on": "OHHL induced LuxR dependent expression of GFP", "experiment": "Quantitative furanone inhibition of the LuxR-PluxI-gfp(ASV) quorum sensor in E. coli MT102 (pJBA89)", "format": "cell-based, Escherichia coli", "settings": "gradient of furanone concentration lowering RFU to 40% versus OHHL concentration (5-100 nM)", "from_the_text": "To analyse the AHL antagonist activity of the halogenated furanones we tested the compounds for their ability to inhibit 3oxo-C6-HSL (OHHL) induced LuxR dependent expression of green fluorescent protein (GFP) from a Pgfp(ASV) fusion in the AHL monitor strain E. coli MT102 harbouring pJBA89 (Andersen et al., 2001).\nThe medium used is minimal ABT containing 0.5% glucose and 0.5% Casamino Acids. In growing cultures of the AHL monitor strain E. coli Mt102 (pJBA89) encoding […] and a P-gfp(ASV) fusion, GFP(ASV) is produced immediately upon OHHL addition specifically from the LuxR controlled P-gfp(ASV) fusion gene. The sensitivity is high (responsive to as little as 3 nm OHHL) and due to the instability built into the GFP (ASV) variant there is no background production of green fluoroscence (Andersen et al., 2001). GFP expression from the AHL monitor strain E. coli MT102 (pJBA89) and the control strain MT102 harbouring the lacl^q, Plas-gfp(ASV) IPTG inducible expression system pMH197 was quantified in the following way. Overnight cultures were diluted four fold in fresh medium and incubated for one hour at 30° C. while OHHL and furanone compounds in the required concentrations were mixed in the wells of microtiter dishes. […] When absolute values were required, green fluoroscence was measured on a fluorometer (model RF-1501; Shimadzu, Tokyo, Japan) act at an excitation wavelength of 475 nm and emission detection at 515 nm. To establish a correlation between the colour code of the ARGUS-50 captured images and green fluorescence, both colour and relative fluorescence units (RFU), were determined for a dilution series of an E. coli MT102 (pJBA89) culture which had been incubated with […]. […]\nFrom the second plot, the furanone concentration reducing the relative activity to 40% (ID60) is determined for each OHHL concentration. […]\nTo enable easy comparison of the strength of the furanones, an inhibition index (IIX40) is calculated for each furanone compound. […]"}}}
{"smiles": "O=C1C=C/C(=C/Br)O1", "note": "[furanone 56]", "values": [{"measurement": "QSI activity / lasB promoter activity in heterologous E. coli background", "setting": "[1]", "result": "repressed lasB promoter activity"}, {"measurement": "QSI activity / lasB promoter activity in heterologous E. coli background", "setting": "[1]; listed as furanone", "result": "observed"}, {"measurement": "inhibition index (IIX40)", "setting": "[2]", "result": "0.51 mole of furanone per mmole of"}]}
